According to patent US10035790B2, “RORγ modulators” (BRISTOL-MYERS SQUIBB COMPANY, priority 2012, dated 2018):

Molecular target: T1, ligand binding domain of human RORγ (A262-S507) (Homo sapiens, UniProt P51449)
T1 construct: made in house; host or cells: E. coli
T1 sequence (P51449 262-507): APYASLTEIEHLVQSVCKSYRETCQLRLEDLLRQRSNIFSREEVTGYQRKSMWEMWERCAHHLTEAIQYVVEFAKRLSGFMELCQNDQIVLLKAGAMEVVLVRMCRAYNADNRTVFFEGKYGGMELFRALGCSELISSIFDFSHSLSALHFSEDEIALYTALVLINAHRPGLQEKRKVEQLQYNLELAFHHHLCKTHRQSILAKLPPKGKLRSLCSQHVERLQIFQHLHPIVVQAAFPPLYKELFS
Assay: General RORγ SPA binding assay (competition with [3H]25-hydroxycholesterol)
Conditions: RORγ SPA binding assay, inhibition of [3H]25-hydroxycholesterol binding; read-out: IC50
Protocol: Example 2 General RORγ SPA Binding Assay
The binding of potential ligands to RORγ is measured by competition with [^3H]25-hydroxycholesterol using a scintillation proximity assay (SPA) binding assay. The ligand binding domain of human RORγ (A262-S507) with an N-terminal His tag is expressed in E. coli and purified using nickel affinity chromotography. 50 nM RORγ (A262-S507) is incubated with test compound at varying concentrations for 15 min at room temperature in PBS buffer containing 0.5% fatty acid free BSA. […] of [^3H]25-hydroxycholesterol is then added, and the reaction is incubated for 15 min. 4 mg/mL of Ysi Copper HIS-TAG SPA Beads (Perkin Elmer) are added, and the mixture is incubated for 30 min. The reaction is read on a MicroBeta Trilux scintillation plate reader (Perkin Elmer). IC50 values are determined from the percentage inhibition of [^3H]25-hydroxycholesterol binding.

Row | Structure (SMILES) | IC50
1 | COc1cccc(CNC(=O)c2cnc(C)nc2C2CCN(C(=O)Cc3c(F)cccc3F)CC2)c1 [Compound A58, 4-(1-(2-(2,6-difluorophenyl)acetyl)piperidin-4-yl)-N-(3-methoxybenzyl)-2-methylpyrimidine-5-carboxamide] | 24.3 nM
2 | Cc1ncc(C(=O)NCc2ccc(Cl)cc2C)c(C2CCN(C(=O)Cc3c(F)cccc3F)CC2)n1 [Compound A59, N-(4-chloro-2-methylbenzyl)-4-(1-(2-(2,6-difluorophenyl)acetyl)piperidin-4-yl)-2-methylpyrimidine-5-carboxamide] | 25.5 nM
3 | Cc1ncc(C(=O)NCc2ccc(Cl)cc2)c(C2CCN(C(=O)Cc3c(F)cccc3F)CC2)n1 [Compound A62, N-(4-chlorobenzyl)-4-(1-(2-(2,6-difluorophenyl)acetyl)piperidin-4-yl)-2-methylpyrimidine-5-carboxamide] | 43.4 nM
4 | CCc1ncc(C(=O)NCc2cc(C)cc(C)c2)c(C2CCN(C(=O)Cc3c(F)cccc3F)CC2)n1 [Compound A64, 4-(1-(2-(2,6-difluorophenyl)acetyl)piperidin-4-yl)-N-(3,5-dimethylbenzyl)-2-ethylpyrimidine-5-carboxamide] | 64 nM
5 | O=C(NCc1ccc(Cl)c(Cl)c1)c1cncnc1C1CCN(C(=O)Cc2c(Cl)cccc2Cl)CC1 [Compound A65, N-(3,4-dichlorobenzyl)-4-(1-(2-(2,6-dichlorophenyl)acetyl)piperidin-4-yl)pyrimidine-5-carboxamide] | 69 nM
6 | Cc1ncc(C(=O)NCc2ccccc2)c(C2CCN(C(=O)Cc3c(F)cccc3F)CC2)n1 [Compound A69, N-benzyl-4-(1-(2-(2,6-difluorophenyl)acetyl)piperidin-4-yl)-2-methylpyrimidine-5-carboxamide] | 144 nM
7 | Cc1cc(CNC(=O)c2cnc(C)nc2C2CCN(C(=O)Cc3c(F)cccc3F)CC2)ccn1 [Compound A70, 4-(1-(2-(2,6-difluorophenyl)acetyl)piperidin-4-yl)-2-methyl-N-((2-methylpyridin-4-yl)methyl)pyrimidine-5-carboxamide] | 213 nM
8 | Cc1ncc(C(=O)NCc2ccc(Cl)nc2)c(C2CCN(C(=O)Cc3c(F)cccc3F)CC2)n1 [Compound A71, N-((6-chloropyridin-3-yl)methyl)-4-(1-(2-(2,6-difluorophenyl)acetyl)piperidin-4-yl)-2-methylpyrimidine-5-carboxamide] | 242 nM
9 | Cc1ncc(C(=O)NCc2ccc(C(F)(F)F)nc2)c(C2CCN(C(=O)Cc3c(F)cccc3F)CC2)n1 [Compound A74, 4-(1-(2-(2,6-difluorophenyl)acetyl)piperidin-4-yl)-2-methyl-N-((6-(trifluoromethyl)pyridin-3-yl)methyl)pyrimidine-5-carboxamide] | 619 nM
10 | Cc1ncc(C(=O)NC(C)c2cccc(Cl)c2)c(C2CCN(C(=O)Cc3c(F)cccc3F)CC2)n1 (centres unmarked) [Compound A76, N-(1-(3-chlorophenyl)ethyl)-4-(1-(2-(2,6-difluorophenyl)acetyl)piperidin-4-yl)-2-methylpyrimidine-5-carboxamide] | 1120 nM

More lines, in order of falling IC50, values ahead:

Row | IC50 | Structure (SMILES)
11 | 5260 nM | Cc1cnc(CNC(=O)c2cnc(C)nc2C2CCN(C(=O)Cc3c(F)cccc3F)CC2)cn1 [Compound A79, 4-(1-(2-(2,6-difluorophenyl)acetyl)piperidin-4-yl)-2-methyl-N-((5-methylpyrazin-2-yl)methyl) pyrimidine-5-carboxamide]
12 | 1790 nM | Cc1ncc(C(=O)NCc2cc(C)n(C)n2)c(C2CCN(C(=O)Cc3c(F)cccc3F)CC2)n1 [Compound A78, 4-(1-(2-(2,6-difluorophenyl)acetyl)piperidin-4-yl)-N-((1,5-dimethyl-1H-pyrazol-3-yl)methyl)-2-methylpyrimidine-5-carboxamide]
13 | 1340 nM | CCNC(=O)c1cc(CNC(=O)c2cnc(C)nc2C2CCN(C(=O)Cc3c(F)cccc3F)CC2)ccn1 [Compound A77, 4-(1-(2-(2,6-difluorophenyl)acetyl)piperidin-4-yl)-N-((2-(ethylcarbamoyl)pyridin-4-yl)methyl)-2-methylpyrimidine-5-carboxamide]
14 | 750 nM | COC(=O)C(NC(=O)c1cnc(C)nc1C1CCN(C(=O)Cc2c(F)cccc2F)CC1)c1cccc(Cl)c1 (centres unmarked) [Compound A75, methyl 2-(3-chlorophenyl)-2-(4-(1-(2-(2,6-difluorophenyl)acetyl)piperidin-4-yl)-2-methylpyrimidine-5-carboxamido)acetate]
15 | 426 nM | Cc1cc(CNC(=O)c2cnc(C)nc2C2CCN(C(=O)Cc3c(F)cccc3F)CC2)cc(C)n1 [Compound A73, 4-(1-(2-(2,6-difluorophenyl)acetyl)piperidin-4-yl)-N-((2,6-dimethylpyridin-4-yl)methyl)-2-methylpyrimidine-5-carboxamide]
16 | 317 nM | Cc1ncc(C(=O)NCc2cnc(Cl)s2)c(C2CCN(C(=O)Cc3c(F)cccc3F)CC2)n1 [Compound A72, N-((2-chlorothiazol-5-yl)methyl)-4-(1-(2-(2,6-difluorophenyl)acetyl)piperidin-4-yl)-2-methylpyrimidine-5-carboxamide]
17 | 95 nM | O=C(NCc1ccc(Cl)c(Cl)c1)c1cncnc1C1CCN(C(=O)Cc2c(F)ccc(F)c2F)CC1 [Compound A68, N-(3,4-dichlorobenzyl)-4-(1-(2-(2,3,6-trifluorophenyl)acetyl)piperidin-4-yl)pyrimidine-5-carboxamide]
18 | 85 nM | Cc1cc(C(F)(F)F)nc(CNC(=O)c2cnc(C)nc2C2CCN(C(=O)Cc3c(F)cccc3F)CC2)n1 [Compound A67, 4-(1-(2-(2,6-difluorophenyl)acetyl)piperidin-4-yl)-2-methyl-N-((4-methyl-6-(trifluoromethyl)pyrimidin-2-yl)methyl)pyrimidine-5-carboxamide]
19 | 72 nM | Cc1ncc(C(=O)NCc2cc(C(F)(F)F)ccn2)c(C2CCN(C(=O)Cc3c(F)cccc3F)CC2)n1 [Compound A66, 4-(1-(2-(2,6-difluorophenyl)acetyl)piperidin-4-yl)-2-methyl-N-((4-(trifluoromethyl)pyridin-2-yl)methyl)pyrimidine-5-carboxamide]
20 | 63 nM | Cc1ncc(C(=O)NCc2cccc(Cl)c2C)c(C2CCN(C(=O)Cc3c(F)cccc3F)CC2)n1 [Compound A63, N-(3-chloro-2-methylbenzyl)-4-(1-(2-(2,6-difluorophenyl)acetyl)piperidin-4-yl)-2-methylpyrimidine-5-carboxamide]
21 | 38.2 nM | Cc1nc(C)c(C(=O)NCc2ccnc(C(F)(F)F)c2)c(C2CCN(C(=O)Cc3c(F)cccc3F)CC2)n1 [Compound A61, 4-(1-(2-(2,6-difluorophenyl)acetyl)piperidin-4-yl)-2,6-dimethyl-N-((2-(trifluoromethyl)pyridin-4-yl)methyl)pyrimidine-5-carboxamide]
22 | 35 nM | Cc1cccc(CNC(=O)c2cnc(C)nc2C2CCN(C(=O)Cc3c(F)cccc3F)CC2)c1 [Compound A60, 4-(1-(2-(2,6-difluorophenyl)acetyl)piperidin-4-yl)-2-methyl-N-(3-methylbenzyl)pyrimidine-5-carboxamide]
23 | 21.8 nM | Cc1cc(C)cc(CNC(=O)c2cncnc2C2CCN(C(=O)Cc3c(F)cccc3F)CC2)c1 [Compound A57, 4-(1-(2-(2,6-difluorophenyl)acetyl)piperidin-4-yl)-N-(3,5-dimethylbenzyl)pyrimidine-5-carboxamide]
